These are literature values, as cited in patent EP4062897A1, “HAIR CARE COMPOSITION AND PREPARATION METHOD THEREFOR” (BioRight Worldwide Company Limited, priority 2019, dated 2021).

For the series the following is noted: in aqueous solution, typical value.

Consider `NC(=O)c1ccc[n+]([C@@H]2O[C@H](COP(=O)([O-])O)[C@@H](O)[C@H]2O)c1` [nicotinamide mononucleotide, Nicotinamide mononucleotide], for which the half-life (usually the time needed for the level to fall by half in the phase considered) is on record as 14 days.
